Experimental data from patent publication US8143216B2, “Modified human growth hormone” (Ambrx, Inc., priority 2004, dated 2012).

Assays:
[1] = system: rat model of growth hormone deficiency (hypophysectomized rats); test: Efficacy studies of PEGylated hGH in a rat model of growth hormone deficiency (Example 34); type: in vivo
Procedure: Preclinical efficacy studies were conducted in a rat model of growth hormone deficiency. In this model, the pituitary gland was surgically removed at approximately 4 weeks of age. The body weights of these hypophysectomized rats were monitored after surgery and animals showing less than 7.5 grams of bodyweight gain over a period of 7 days before the study were deemed successfully hypophysectomized and were randomized amongst the treatment groups. Animals showing more than 2.5 g of weight-loss were deemed not healthy and were excluded from the study. The study was initiated approximately 3 weeks after the surgery.
Animals were dosed weekly (i.e. dosed on days 0 and 7) with either placebo or increasing PEG-^ahGH dose. An additional treatment group received Genotropin or placebo daily. Bodyweights and blood were collected predose and daily. All animals were sacrificed on day 14.
For this parameter, the AUC is expressed as AUC above the efficacious IGF-1 plasma level. […] In the current study, the baseline IGF-1 level determined from the placebo group throughout the study was 128 ng/mL. An increase of 34 ng/mL over 128 ng/mL estimates an efficacious IGF-1 level of 162 ng/mL. Thus the AUC above 162 ng/mL was integrated. From this analysis, a dose-dependent increase in AUC above efficacious level was observed after each dose interval.
The duration of IGF-1 levels induced above the estimated efficacious level after the first dose was determined. At the higher doses, the IGF-1 levels had not returned to baseline before the second dose. In these instances, the IGF-1 concentration was extrapolated to the efficacious level using the calculated terminal slopes. From this evaluation, a dose-dependent increase in duration of IGF-1 concentration above the efficacious level was evident.
Bone growth was used as an additional pharmacodynamic measure to calculate the PEG-^ahGH ED50. Tibias were collected from each animal at the end of the study and immersion fixed in 10% neutral-buffered formalin followed by radiography. There was a clear dose-dependent increase in tibial bone length for the PEG-^ahGH treated animals. Moreover, there was a dose sparing effect compared to the daily Genotropin treated animals. The amount of Genotropin administered over a 7-day interval is equivalent to 2.1 mg/kg of PEG-^ahGH given weekly (i.e., days 0 and 7). An induction of tibial bone length increase similar to Genotropin is shown for PEG-^ahGH at 0.42 to 1.0 mg/kg. This represents a ≧50% dose-sparing effect for PEG-^ahGH when compared to Genotropin.

[2] = Rat pharmacokinetics: PEG-ahGH plasma concentration in the rat disease model; type: in vivo
Procedure: The same plasma samples collected for IGF-1 concentration determination were also assayed for PEG-^ahGH concentration. […] The duration of PEG-^ahGH persistence in the circulation, as well as the overall PEG-^ahGH AUC, increased in a dose-dependent manner. […] The PEG-^ahGH exposure results support the dose-dependent efficacy shown above.
Plasma concentration versus time profiles for PEG-^ahGH administered subcutaneously at various doses in the rat disease model are shown in Example 34, above.

rat GHR ECD (L43R) = biological target: T1, rat GHR ECD (L43R) (Rattus norvegicus, UniProt P16310, L61R); test: Biacore analysis of binding of GH to GHR; conditions: rat GHR ECD (L43R) immobilized on a CM5 chip, bivalent analyte model
T1 construct: (GHR ECD, amino acids S29-T238) was cloned into pET20b vector; made in house
T1 sequence (P16310 47-256 L61R): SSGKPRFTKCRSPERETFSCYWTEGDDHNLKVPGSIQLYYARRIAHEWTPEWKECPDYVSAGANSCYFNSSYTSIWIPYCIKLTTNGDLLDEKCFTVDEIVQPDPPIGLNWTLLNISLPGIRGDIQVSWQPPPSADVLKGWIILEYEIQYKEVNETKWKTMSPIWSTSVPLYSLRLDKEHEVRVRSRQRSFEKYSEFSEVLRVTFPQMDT
Procedure: Cloning and purification of rat GH receptor The extracellular domain of rat GH receptor (GHR ECD, amino acids S29-T238) was cloned into pET20b vector (Novagen) between Nde I and Hind III sites in frame with C-terminal 6H is tag. A mutation of L43 to R was introduced to further approximate the human GH receptor binding site (Souza et al., Proc Natl Acad Sci USA. (1995) 92(4): 959-63). Recombinant protein was produced in BL21 (DE3) E. coli cells (Novagen) by induction with 0.4 mM IPTG at 30° C. for 4-5 hours. After lysing the cells, the pellet was washed four times by resuspending in a dounce with 30 mL of 50 mM Tris, pH 7.6, 100 mM NaCl, 1 mM EDTA, 1% Triton X-100, and twice with the same buffer without Triton X-100. […] Refolding was accomplished by means of passing an aliquot of the inclusion body solution through a S100 (Sigma) gel filtration column, equilibrated with 50 mM Tris, pH 7.8, 1 M L-arginine, 3.7 mM cystamine, 6.5 mM cysteamine. Fractions containing soluble protein were combined and dialyzed against 50 mM Tris, pH 7.6, 200 mM NaCl, 10% glycerol. The sample was briefly centrifuged to remove any precipitate and incubated with an aliquot of Talon resin (Clontech), according to manufacturer's instructions. After washing the resin with 20 volumes of dialysis buffer supplemented with 5 mM imidazole, protein was eluted with 120 mM imidazole in dialysis buffer. Finally, the sample was dialyzed overnight against 50 mM Tris, pH 7.6, 30 mM NaCl, 1 mM EDTA, 10% glycerol, centrifuged briefly to remove any precipitate, adjusted to 20% glycerol final concentration, aliquoted and stored at −80 C. Concentration of the protein was measured by OD(280) using calculated extinction coefficient of ε=65,700 M^−1*cm^−1.
Approximately 600-800 RUs of soluble GHR ECD was immobilized on a Biacore™ CM5 chip, using a standard amine-coupling procedure, as recommended by the manufacturer. […] See, e.g., Cunningham et al. J Mol. Biol. (1993) 234(3): 554-63 and Wells J A. Proc Natl Acad Sci USA (1996) 93(1): 1-6).
Various concentrations of wild type or mutant GH (0.1-300 nM) in HBS-EP buffer (Biacore™, Pharmacia) were injected over the GHR surface at a flow rate of 40 μl/min for 4-5 minutes, and dissociation was monitored for 15 minutes post-injection. The surface was regenerated by a 15 second pulse of 4.5M MgCl2. […] Reference cell with no receptor immobilized was used to subtract any buffer bulk effects and non-specific binding.
Kinetic binding data obtained from GH titration experiments was processed with BiaEvaluation 4.1 software (BIACORE™). […] Equilibrium dissociation constants (Kd) were calculated as ratios of individual rate constants (koff/kon).

[3] = biological target: T2, human growth hormone receptor on IM-9 cells (Homo sapiens, UniProt P10912); test: IM-9 pSTAT5 bioassay (STAT5 phosphorylation in IM-9 cells); type: cell-based; conditions: IM-9 cells
T2 construct: host or cells: human IM-9 lymphocyte cell line
T2 sequence (P10912 19-638): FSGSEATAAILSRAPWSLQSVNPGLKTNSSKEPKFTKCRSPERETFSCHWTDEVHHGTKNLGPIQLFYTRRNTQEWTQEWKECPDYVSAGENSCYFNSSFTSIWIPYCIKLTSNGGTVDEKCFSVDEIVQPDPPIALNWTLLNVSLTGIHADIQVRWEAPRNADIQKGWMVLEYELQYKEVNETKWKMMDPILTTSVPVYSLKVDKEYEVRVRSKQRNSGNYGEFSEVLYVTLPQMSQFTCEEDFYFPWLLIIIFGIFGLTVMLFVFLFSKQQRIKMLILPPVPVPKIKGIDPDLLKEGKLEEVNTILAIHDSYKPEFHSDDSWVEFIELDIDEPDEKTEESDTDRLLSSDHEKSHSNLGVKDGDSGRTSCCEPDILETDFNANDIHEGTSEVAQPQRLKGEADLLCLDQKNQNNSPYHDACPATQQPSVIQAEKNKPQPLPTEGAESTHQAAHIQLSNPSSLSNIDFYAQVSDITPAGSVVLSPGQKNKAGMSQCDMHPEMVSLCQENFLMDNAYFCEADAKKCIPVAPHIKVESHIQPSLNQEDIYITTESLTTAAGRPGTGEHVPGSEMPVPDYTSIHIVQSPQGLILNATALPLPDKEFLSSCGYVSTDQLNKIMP
Description: To further assess the biological activity of modified hGH polypeptides, an assay measuring a downstream marker of hGH's interaction with its receptor was used. The interaction of hGH with its endogenously produced receptor leads to the tyrosine phosphorylation of a signal transducer and activator of transcription family member, STAT5, in the human IM-9 lymphocyte cell line. Two forms of STAT5, STAT5A and STAT5B were identified from an IM-9 cDNA library. See, e.g., Silva et al., Mol. Endocrinol. (1996) 10(5):508-518.
IM-9 cells were stimulated with hGH polypeptides of the present invention. The human IM-9 lymphocytes were purchased from ATCC (Manassas, Va.) and grown in RPMI 1640 supplemented with sodium pyruvate, penicillin, streptomycin (Invitrogen, Carlsbad, San Diego) and 10% heat inactivated fetal calf serum (Hyclone, Logan, Utah). The IM-9 cells were starved overnight in assay media (phenol-red free RPMI, 10 mM Hepes, 1% heat inactivated charcoal/dextran treated FBS, sodium pyruvate, penicillin and streptomycin) before stimulation with a 12-point dose range of hGH polypeptides for 10 min at 37° C. Stimulated cells were fixed with 1% formaldehyde before permeabilization with 90% ice-cold methanol for 1 hour on ice. The level of STAT5 phosphorylation was detected by intra-cellular staining with a primary phospho-STAT5 antibody (Cell Signaling Technology, Beverly, Mass.) at room temperature for 30 min followed by a PE-conjugated secondary antibody. Sample acquisition was performed on the FACS Array with acquired data analyzed on the Flowjo software (Tree Star Inc., Ashland, Oreg.). EC50 values were derived from dose response curves plotted with mean fluorescent intensity (MFI) against protein concentration utilizing SigmaPlot.
The interaction of hGH with its receptor leads to the tyrosine phosphorylation of a signal transducer and activator of transcription family member, STAT5, in the human IM-9 lymphocyte cell line.

[4] = On day 14, after 2 weekly s.c. doses
[5] = after the first dose, curve fitting
[6] = curve fitting of the AUC values from the first dose
[7] = curve fitting of the Cmax values from the first dose

Genotropin: commercial preparation of hGH, Genotropin™ (Pfizer) [reference compound]
bodyweight change on day 14 from day 0 ([1]; daily treatment at 0.3 mg/kg/day): 27.74 (+/−7.92) %

PEG-^ahGH: PEGylated hGH of SEQ ID NO:2, para-acetylphenylalanine at position 35 linked via an oxime bond to a linear 30 kDa PEG
plasma concentration (hGH ELISA) ([2]; hypophysectomized rats, PEG-ahGH s.c. on days 0 and 7, Genotropin daily): dose-dependent increase in PEG-^ahGH Cmax | apparent terminal half-life ([2]; in rat, subcutaneous): 7.05 (+/−0.47) hours | bodyweight change on day 14 ([1]; 1.0 mg/kg on days 0 and 7): 27.02 (+/−3.97) % | bodyweight change on day 14 from day 0 ([1]; 2.1 mg/kg on days 0 and 7): 33.66 (+/−7.55) % | ED50, Duration of IGF-1 Above Efficacious Level ([1]; After single s.c. dose): 0.173 mg/kg | ED50, IGF-1 AUC Above Efficacious Level ([1]; After single s.c. dose): 0.909 mg/kg | ED50, IGF-1 Induction: IGF-1 Cmax ([1]; After single s.c. dose): 0.136 mg/kg | Range of Effect (Eo-Emax), Duration of IGF-1 Above Efficacious Level ([1]; After single s.c. dose): 0 to 8.84 days | Range of Effect (Eo-Emax), IGF-1 AUC Above Efficacious Level ([1]; After single s.c. dose, AUC above 162 ng/mL): 0-5,029.8 ng × hr/mL | ED50, Tibial Bone Length [1, 4]: 0.424 mg/kg | Range of Effect (Eo-Emax), Percent Bodyweight Change [1, 4]: 7.17-50.65% | Range of Effect (Eo-Emax), Tibial Bone Length [1, 4]: 30.52-33.67 mm | dose-sparing effect over Genotropin (percent bodyweight change) ([1]; PEG-ahGH 1.0 mg/kg on days 0 and 7 vs Genotropin 0.3 mg/kg/day): ~50% | dose-sparing effect when compared to Genotropin (tibial bone length) ([1]; PEG-ahGH 0.42 to 1.0 mg/kg weekly vs daily Genotropin equivalent to 2.1 mg/kg weekly): ≥ 50% | maximum duration of IGF-1 concentration above the efficacious level [1, 5]: 8.84 days | minimum duration of IGF-1 concentration above the efficacious level [1, 5]: 0 days | Emax IGF-1 AUC above efficacious level [1, 6]: 5,029.8 ng×hr/mL | Eo IGF-1 AUC above efficacious level [1, 6]: 0 ng·h/mL | maximum (Emax) IGF-1 Cmax [1, 7]: 1,136.2 ng/mL | minimum (Eo) IGF-1 Cmax [1, 7]: 136.7 ng/mL | maximum percent bodyweight change ([1]; day 14, curve fitting): 50.65% | minimum percent bodyweight change ([1]; day 14, curve fitting): 7.17% | plasma IGF-1 levels throughout the study ([1]; dosed weekly (days 0 and 7) with increasing dose, FIG. 28): robust, dose-dependent increase in IGF-1

unPEGylated GH: unPEGylated GH administered weekly at 2.1 mg/kg in hypophysectomized rats [reference compound]
body weight gain ([1]; weekly at 2.1 mg/kg dose): failed to induce body weight gain

B1: rat GH WT: wild type rat growth hormone (protein)
chain: FPAMPLSSLFANAVLRAQHLHQLAADTYKEFERAYIPEGQRYSIQNAQAAFCFSETIPAPTGKEEAQQRTDMELLRFSLLLIQSWLGPVQFLSRIFTNSLMFGTSDRVYEKLKDLEEGIQALMQELEDGSPRIGQILKQTYDKFDANMRSDDALLKNYGLLSCFKKDLHKAETYLRVMKCRRFAESSCAF
kon (rat GHR ECD (L43R)): 33000 M⁻¹ s⁻¹ | STAT5 phosphorylation [3]: neither rat growth hormone nor human prolactin resulted in detectable STAT5 phosphorylation

B2: human prolactin: human prolactin (protein)
chain: LPICPGGAARCQVTLRDLFDRAVVLSHYIHNLSSEMFSEFDKRYTHGRGFITKAINSCHTSSLATPEDKEQAQQMNQKDFLSLIVSILRSWNEPLYHLVTEVRGMQEAPEAILSKAVEIEEQTKRLLEGMELIVSQVHPETKENEIYPVWSGLPSLQMADEESRLSAYYNLLHCLRRDSHKIDNYLKLLKCRIIHNNNC
STAT5 phosphorylation [3]: neither rat growth hormone nor human prolactin resulted in detectable STAT5 phosphorylation
